Results reported in patent publication US6900244B2, “Anilino liver X-receptor modulators” (Pharmacia Corporation, priority 2002, dated 2005).

Structure (SMILES) | melting point
CCOC(=O)CN(CC(F)(F)F)c1ccc(C(O)(C(F)(F)F)C(F)(F)F)cc1 [Example 5, Ethyl N-(2,2,2-trifluoroethyl)-N-{4-[2,2,2-trifluoro-1-hydroxy-1-(trifluoromethyl)-ethyl]phenyl}glycinate] | 67 °C
CN(CC(=O)N1CCOCC1)c1ccc(C(O)(C(F)(F)F)C(F)(F)F)cc1 [Example 38] | 149 °C
CCOC(=O)CCN(C)c1ccc(C(O)(C(F)(F)F)C(F)(F)F)cc1 [Example 14, Ethyl N-methyl-N-{4-[2,2,2-trifluoro-1-hydroxy-1-(trifluoromethyl)ethyl]phenyl}-beta-alaninate] | 77 °C
CCOC(=O)C1(Nc2ccc(C(O)(C(F)(F)F)C(F)(F)F)cc2)CCC(C)CC1 (centres unmarked) [Example 50, Ehyl 4-methyl-1-({4-[2,2,2-trifluoro-1-hydroxy-1-(trifluoromethyl)ethyl]phenyl}amino)cyclohexanecarboxylate] | 142.6 °C
CCOC(=O)CN(Cc1cccc(Cl)c1)c1ccc(C(O)(C(F)(F)F)C(F)(F)F)cc1 [Example 41, Ethyl N-(3-chlorobenzyl)-N-{4-[2,2,2-trifluoro-1-hydroxy-1-(trifluoromethyl)ethyl]phenyl}glycinate] | 81.5 °C
CCOC(=O)CN(Cc1ccccc1Cl)c1ccc(C(O)(C(F)(F)F)C(F)(F)F)cc1 [Example 21, Ethyl N-(2-chlorobenzyl)-N-{4-[2,2,2-trifluoro-1-hydroxy-1-(trifluoromethyl)ethyl]phenyl}glycinate] | 146 °C
CCOC(=O)C(C)(C)Nc1ccc(C(O)(C(F)(F)F)C(F)(F)F)cc1 [Example 3, Ethyl 2-methyl-N-{4-[2,2,2-trifluoro-1-hydroxy-1-(trifluoromethyl)ethyl]phenyl}-alaninate] | 93 °C
CCOC(=O)CN(Cc1cccnc1)c1ccc(C(O)(C(F)(F)F)C(F)(F)F)cc1 [Example 22, Ethyl N-(pyridin-3-ylmethyl)-N-{4-[2,2,2-trifluoro-1-hydroxy-1-(trifluoromethyl)ethyl]phenyl}glycinate] | 55 °C
CCOC(=O)CC(C)Nc1ccc(C(O)(C(F)(F)F)C(F)(F)F)cc1 (centres unmarked) [Example 1, Ethyl 3-({4-[2,2,2-trifluoro-1-hydroxy-1-(trifluoromethyl)ethyl]phenyl}amino)-butanoate] | 103 °C
CN(CC(=O)OCc1ccc(Cl)cc1)c1ccc(C(O)(C(F)(F)F)C(F)(F)F)cc1 [Example 35, 4-Chlorobenzyl N-methyl-N-{4-[2,2,2-trifluoro-1-hydroxy-1-(trifluoromethyl)-ethyl]phenyl}glycinate] | 66.5 °C
CCOC(=O)CN(Cc1ccccc1)c1ccc(C(O)(C(F)(F)F)C(F)(F)F)cc1 [Example 19, Ethyl N-benzyl-N-{4-[2,2,2-trifluoro-1-hydroxy-1-(trifluoromethyl)ethyl]-phenyl}glycinate] | 116 °C
CCOC(=O)CN(Cc1ccc(Cl)cc1Cl)c1ccc(C(O)(C(F)(F)F)C(F)(F)F)cc1 [Example 40, Ethyl N-(2,4-dichlorobenzyl)-N-{4-[2,2,2-trifluoro-1-hydroxy-1-(trifluoromethyl)ethyl]phenyl}glycinate] | 111 °C
CCOC(=O)CN(Cc1ccc(OC)cc1)c1ccc(C(O)(C(F)(F)F)C(F)(F)F)cc1 [Example 43, Ethyl N-(4-methoxybenzyl)-N-{4-[2,2,2-trifluoro-1-hydroxy-1-(trifluoromethyl)ethyl]phenyl}glycinate] | 68 °C
CCOC(=O)CN1CCCc2cc(C(O)(C(F)(F)F)C(F)(F)F)ccc21 [Example 31, Ethyl [6-[2,2,2-trifluoro-1-hydroxy-1-(trifluoromethyl)ethyl]-3,4-dihydroquinolin-1(2H)-yl]acetate] | 66.5 °C
CCOC(=O)C1(Nc2ccc(C(O)(C(F)(F)F)C(F)(F)F)cc2)CCC(C(C)(C)C)CC1 (centres unmarked) [Example 49, Ethyl 4-tert-butyl-1-({4-[2,2,2-trifluoro-1-hydroxy-1-(trifluoromethyl)ethyl]phenyl}amino)cyclohexanecarboxylate] | 107 °C
CN(CC(=O)N1CCCC1)c1ccc(C(O)(C(F)(F)F)C(F)(F)F)cc1 [Example 39] | 184 °C
CON(C)C(=O)CN(C)c1ccc(C(O)(C(F)(F)F)C(F)(F)F)cc1 [Example 32, N˜1˜-Methoxy-N˜1˜N˜2˜-dimethyl-N˜2˜-{4-[2,2,2-trifluoro-1-hydroxy-1-(trifluoromethyl)ethyl]phenyl}glycinamide] | 121 °C
